Measurements from patent US11833160B2, “Ursodeoxycholic acid derivatives as HDAC inhibitors for the treatment of polycystic diseases” (UNIVERSIDAD DEL PAIS VASCO/EUSKAL HERRIKO UNIBERTSITATEA, priority 2017, dated 2023).

Experiments:
PCK rats = assay: Chronic treatment of PCK rats (animal model of PLD), liver transaminase ALT; assay type: in vivo, rat; settings: 7 mg/kg/day, 2 months
Method: PCK rats were chronically treated (2 months) with compound Ia (7 mg/kg/day).

ASBT = target: T1, ASBT (Homo sapiens, UniProt Q12908); assay: Uptake study, transporter ASBT (data not shown); assay type: in vitro ADME
T1 construct: expressed in transfected cells
T1 sequence (Q12908 1-348): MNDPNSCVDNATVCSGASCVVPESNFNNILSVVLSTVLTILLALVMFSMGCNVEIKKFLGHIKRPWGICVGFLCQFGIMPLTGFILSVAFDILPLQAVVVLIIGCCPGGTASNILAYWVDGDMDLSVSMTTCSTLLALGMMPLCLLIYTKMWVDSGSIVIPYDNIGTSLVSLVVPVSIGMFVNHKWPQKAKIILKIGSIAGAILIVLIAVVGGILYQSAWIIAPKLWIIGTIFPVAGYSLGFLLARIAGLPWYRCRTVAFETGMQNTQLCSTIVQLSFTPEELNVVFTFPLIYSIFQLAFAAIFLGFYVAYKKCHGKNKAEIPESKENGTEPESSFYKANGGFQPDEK
Excerpt: (§1) The bile acid and organic cation transporters expressed in hepatocytes and cholangiocytes were overexpressed in HepG2 cells (OCT1) and CHO cells (OCT3). The efficacy of the process was confirmed by means of measuring the abundance of mRNA (qPCR), protein (WB), and the correct insertion in the plasma membrane (immunofluorescence). The uptake studies included comparing the uptake efficiency of the compound with respect to dihydroethidium (DHE) in the case of OCT3, and sorafenib in the case of OCT1 (positive controls), as well as the sensitivity of the process to substrate inhibition induced by the joint administration of the compound and quinine. The cell content of all the compounds was determined by means of triple quadrupole HPLC-MS/MS after extraction thereof from the cell system used in each case.

OCT1 = target: T2, OCT1 (Homo sapiens, UniProt O15245); assay: Uptake study in HepG2 cells overexpressing OCT1; assay type: in vitro ADME
T2 construct: expressed in transfected cells; host or cells: HepG2 cells
T2 sequence (O15245 1-554): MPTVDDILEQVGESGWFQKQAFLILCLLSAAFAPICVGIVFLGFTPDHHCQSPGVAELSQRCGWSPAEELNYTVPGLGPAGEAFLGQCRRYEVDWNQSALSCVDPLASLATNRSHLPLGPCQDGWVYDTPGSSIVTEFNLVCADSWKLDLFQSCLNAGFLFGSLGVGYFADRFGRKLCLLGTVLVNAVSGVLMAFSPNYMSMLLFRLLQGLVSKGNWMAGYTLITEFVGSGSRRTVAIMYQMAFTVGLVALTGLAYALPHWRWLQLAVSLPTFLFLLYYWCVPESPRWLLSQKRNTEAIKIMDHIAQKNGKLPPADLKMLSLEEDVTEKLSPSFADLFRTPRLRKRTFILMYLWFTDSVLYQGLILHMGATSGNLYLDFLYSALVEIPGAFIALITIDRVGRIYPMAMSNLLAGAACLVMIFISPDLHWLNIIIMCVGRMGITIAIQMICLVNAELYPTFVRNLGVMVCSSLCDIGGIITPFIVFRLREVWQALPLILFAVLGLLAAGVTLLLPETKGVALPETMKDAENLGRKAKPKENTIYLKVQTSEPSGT
Excerpt: as §1

human HDAC4 = target: T3, human HDAC4 (Homo sapiens, UniProt P56524); assay: HDAC4 enzymatic activity assay (fluorogenic peptide); assay type: biochemical; settings: 10-dose, 3-fold serial dilution, triplicate
T3 construct: amino acids 627-1085 with GST N-terminal tag, MW=75.2 kDa; GST (N); purchased BioMol, Hamburg, Germany; host or cells: baculovirus expression system
Method: Peptide substrates: all HDAC assays were performed using acetylated peptide substrates labeled with 7-amino-4-methylcoumarin (AMC): • Substrate for isoforms HDAC1, 2, 3, 6, 10, 11, and HeLa nuclear extract assays: acetylated fluorogenic peptide from p53 residues 379-382 (RHKKAc). • Substrate for isoforms HDAC4, 5, 7, 9: fluorogenic Boc-L-Lys (s-trifluoroacetyl)-AMC. • Substrate for HDAC8 assays: acetylated fluorogenic peptide from p53 residues 379-382 (RHKAcKAc).
50 μl of peptide substrate (see “peptide substrates” section above) and an optimal concentration of the corresponding enzyme (see “enzymes” section above) in the assay buffer at a final DMSO concentration of 1% were incubated in the presence of gradient concentrations of inhibitors (10-dose IC50 mode with 3-fold serial dilution) at 30° C. for 2 hours. The reactions were carried out in a 96-well microplate for fluorometry in a 50 μl reaction volume. After the deacetylation reaction, Fluor-de-Lys-Developer (BioMol Cat. #KI-105) was added to each well to digest the deacetylated substrate, thereby producing the fluorescent signal. The reaction was carried out for 45 minutes at 30° C. with 5% CO2; the fluorescent signal was then measured using an excitation wavelength of 360 nm and an emission wavelength of 460 nm in a microplate-reading fluorometer (GeminiXS, Molecular Devices, Sunnyvale, CA). […]

T3 sequence (P56524 627-1084 limits assumed): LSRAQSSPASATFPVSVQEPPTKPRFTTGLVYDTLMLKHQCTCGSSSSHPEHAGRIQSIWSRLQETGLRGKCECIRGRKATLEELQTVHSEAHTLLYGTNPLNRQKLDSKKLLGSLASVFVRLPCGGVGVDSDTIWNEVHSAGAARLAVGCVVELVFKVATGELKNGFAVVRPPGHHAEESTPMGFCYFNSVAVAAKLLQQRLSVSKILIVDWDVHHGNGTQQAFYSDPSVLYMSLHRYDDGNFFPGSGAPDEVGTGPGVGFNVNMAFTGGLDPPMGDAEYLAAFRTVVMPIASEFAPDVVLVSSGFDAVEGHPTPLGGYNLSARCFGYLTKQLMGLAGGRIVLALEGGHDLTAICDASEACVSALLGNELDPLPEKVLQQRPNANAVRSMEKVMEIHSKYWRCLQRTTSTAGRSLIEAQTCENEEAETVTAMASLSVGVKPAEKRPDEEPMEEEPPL

`C[C@H](CCC(=O)NCc1ccc(C(=O)NO)cc1)[C@H]1CC[C@H]2[C@@H]3[C@@H](O)C[C@@H]4C[C@H](O)CC[C@]4(C)[C@H]3CC[C@]12C` [Compound Ia] was tested, and the “levels of liver transaminase ALT” value (PCK rats) was “significantly reduced”, the “transport through ASBT” value (ASBT) was “not through ASBT” and the “effect of quinine (OCT1 inhibitor) on the OCT1 transport” value (OCT1; joint administration with quinine) was “inhibited by the presence of quinine”. The “transport through OCT1” value (OCT1; liver cells (HepG2 overexpressing OCT1), HPLC-MS/MS cell content) was “specifically transported through OCT1” and the IC50 (human HDAC4) was 16.5 µM.
